Test [1] concerns the target cloned human δ opioid receptor (Homo sapiens, UniProt P41143). As to the kind of experiment: biochemical.
Test [2] deals with cloned human κ opioid receptor (Homo sapiens, UniProt P41145). As to the kind of experiment: biochemical. It is filed as biochemical. The settings on record: for times less potent than JDTic as a κ opioid receptor antagonist: ratio of κ Ke values vs JDTic.
For test [3], the target named is cloned human μ opioid receptor (Homo sapiens, UniProt P35372). The class given is biochemical. The conditions noted are these: ratio of μ Ke values vs 3b.
Sequence of cloned human μ opioid receptor (P35372 whole entry): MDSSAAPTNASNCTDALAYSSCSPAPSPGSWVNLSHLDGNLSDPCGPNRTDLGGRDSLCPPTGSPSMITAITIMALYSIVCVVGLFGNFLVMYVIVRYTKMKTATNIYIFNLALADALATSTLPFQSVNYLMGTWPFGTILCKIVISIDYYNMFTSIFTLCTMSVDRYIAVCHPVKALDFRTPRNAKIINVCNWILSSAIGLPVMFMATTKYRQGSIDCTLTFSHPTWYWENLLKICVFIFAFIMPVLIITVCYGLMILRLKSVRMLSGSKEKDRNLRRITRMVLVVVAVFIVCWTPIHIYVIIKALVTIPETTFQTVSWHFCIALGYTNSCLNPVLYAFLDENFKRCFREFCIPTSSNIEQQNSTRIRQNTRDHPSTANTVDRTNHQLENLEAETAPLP

Sequence of cloned human κ opioid receptor (P41145 whole entry): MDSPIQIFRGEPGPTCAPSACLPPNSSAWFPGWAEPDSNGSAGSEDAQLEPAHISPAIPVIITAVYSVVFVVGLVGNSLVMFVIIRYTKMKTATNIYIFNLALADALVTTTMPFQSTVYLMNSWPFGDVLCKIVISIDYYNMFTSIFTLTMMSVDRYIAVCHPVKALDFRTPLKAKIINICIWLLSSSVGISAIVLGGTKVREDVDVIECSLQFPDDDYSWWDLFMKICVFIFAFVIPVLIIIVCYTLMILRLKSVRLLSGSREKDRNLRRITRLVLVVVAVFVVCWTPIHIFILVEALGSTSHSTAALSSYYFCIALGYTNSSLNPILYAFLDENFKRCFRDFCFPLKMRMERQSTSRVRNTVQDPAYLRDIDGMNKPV
Sequence of cloned human δ opioid receptor (P41143 whole entry): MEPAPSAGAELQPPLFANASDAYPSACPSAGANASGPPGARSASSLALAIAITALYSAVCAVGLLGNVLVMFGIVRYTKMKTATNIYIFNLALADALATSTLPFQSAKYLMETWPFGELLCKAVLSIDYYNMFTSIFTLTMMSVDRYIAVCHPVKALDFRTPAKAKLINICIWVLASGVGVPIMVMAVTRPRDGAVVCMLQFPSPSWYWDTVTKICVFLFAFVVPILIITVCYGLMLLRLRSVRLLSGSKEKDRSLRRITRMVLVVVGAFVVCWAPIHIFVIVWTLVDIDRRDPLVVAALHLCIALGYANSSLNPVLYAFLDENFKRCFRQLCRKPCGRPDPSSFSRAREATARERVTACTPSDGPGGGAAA

As to `CC(C)[C@@H](CN1CCC(C)(c2cccc(O)c2)CC1)NC(=O)[C@H]1Cc2ccc(O)cc2CN1` [Compound 4a, (3R)-7-Hydoxy-N-[(1S)-1-{[4-(3-hydroxyphenyl)-4-methylpiperidin-1-yl]methyl}-2-methylpropyl]-1,2,3,4-tetrahydroisoquinoline-3-carboxamide], the Kb in test [1] is 927 ± 350 nM. Also, in test [2], the “times less potent than JDTic as a κ opioid receptor antagonist” value (shortened to “times less potent than JDTic”) is given as 35 fold.
As to `CC(C)[C@@H](CN1CCC(C)(c2cccc(F)c2)CC1)NC(=O)[C@H]1Cc2ccc(O)cc2CN1` [Compound 4b, (3R)-N-[(1S)-1-{[4-(3-fluorophenyl)-4-methylpiperidin-1-yl]methyl}-2-methylpropyl]-7-hydroxy-1,2,3,4-tetrahydroisoquinoline-3-carboxamide], the “times less potent than JDTic” value in test [2] is 9 fold. For the same molecule, in the test on opioid receptors, the “functional profile in the [35S]GTPγS test” value was “pure opioid antagonist”.
`CC[C@H](C)[C@@H](CN1CCC(C)(c2cccc(F)c2)CC1)NC(=O)[C@H]1Cc2ccc(O)cc2CN1` [Compound 4c, (3R)-N-[(1S,2S)-1-{[4-(3-Fluorophenyl)-4-methylpiperidin-1-yl]methyl}-2-methylbutyl]-7-hydroxy-1,2,3,4-tetrahydroisoquinoline-3-carboxamide]: in test [1], the Kb came to 903 ± 200 nM. For the same molecule, in test [2], the δ/κ was 27,363 and the μ/κ came to 342.
With `CC(C)[C@@H](CN1CCC(c2ccccc2)CC1)NC(=O)[C@H]1Cc2ccc(O)cc2CN1` [Compound 4e, (3R)-7-Hydroxy-N-{(1S)-2-methyl-1-[(4-phenylpiperidin-1-yl]methyl]propyl}-1,2,3,4-tetrahydroisoquinoline-3-carboxamide], in test [1], the Kb amounted to 281 ± 44 nM. In test [2], the Kb came to 0.051 ± 0.01 nM and the “times less potent than JDTic” value is recorded as 2.6 fold. The “times less potent than 3a as a κ antagonist” value in test [2] (ratio of κ Ke values vs 3a) is 2 fold.
Consider `CC(C)[C@@H](CN1CCC(c2cccc(F)c2)CC1)NC(=O)[C@H]1Cc2ccc(O)cc2CN1` [Compound 4f, (3R)-N-[(1S)-1-{[4-(3-Fluorophenyl)piperidin-1-yl]methyl}-2-methylpropyl]-7-hydroxy-1,2,3,4-tetrahydroisoquinoline-3-carboxamide], for which, in test [3], the “times more potent as a μ antagonist than 3b” value stood at 4 fold.
